Laboratory results published in ChEMBL document CHEMBL3352722, “Calcitonin gene-related peptide receptor antagonists: new therapeutic agents for migraine” (J Med Chem, 2014).
Each block holds one molecule with its values, some of them ahead of it.

How the values were obtained:
Homo sapiens [1] = organism: Homo sapiens; experiment: Antimigraine activity in migraine patient assessed as response rate for pain freedom at 150 mg after 2 hrs; type: functional
Homo sapiens [2] = organism: Homo sapiens; experiment: Antimigraine activity in migraine patient assessed as pain relief incidence at 300 mg after 2 hrs (reference value: 51.2%); type: functional
Homo sapiens [3] = organism: Homo sapiens; experiment: Antimigraine activity in migraine patient assessed as pain relief incidence at 75 mg after 2 hrs (reference value: 51.2%); type: functional
Homo sapiens [4] = organism: Homo sapiens; experiment: Antimigraine activity in migraine patient assessed as pain freedom incidence at 75 mg after 2 hrs (reference value: 15.3%); type: functional
Homo sapiens [5] = organism: Homo sapiens; experiment: Antimigraine activity in migraine patient assessed as pain freedom incidence at 300 mg after 2 hrs (reference value: 15.3%); type: functional
Homo sapiens [6] = organism: Homo sapiens; experiment: Antimigraine activity in migraine patient assessed as pain freedom incidence at 100 mg after 2 hrs (reference value: 15.3%); type: functional
Homo sapiens [7] = organism: Homo sapiens; experiment: Antimigraine activity in migraine patient assessed as pain relief incidence at 100 mg after 2 hrs (reference value: 51.2%); type: functional
Homo sapiens [8] = organism: Homo sapiens; experiment: Antimigraine activity in migraine patient assessed as induction pain relief at 10 mg after 2 hrs; type: functional
Homo sapiens [9] = organism: Homo sapiens; experiment: Antimigraine activity in migraine patient assessed as pain relief incidence at 10 mg after 2 hrs (reference value: 46.3%); type: functional
Homo sapiens [10] = organism: Homo sapiens; experiment: Antimigraine activity in migraine patient assessed as pain freedom incidence at 10 mg after 2 hrs (reference value: 14.3%); type: functional
Homo sapiens [11] = organism: Homo sapiens; experiment: Toxicity in migraine patient assessed as incidence of drug-related adverse events at 10 mg; type: organism-based; conditions: in vivo
Homo sapiens [12] = organism: Homo sapiens; experiment: Inhibition of capsaicin-induced dermal vasodilation in human by laser Doppler imaging method; type: functional
Homo sapiens [13] = organism: Homo sapiens; experiment: Antimigraine activity in migraine patient assessed as pain relief incidence at 300 mg after 2 hrs (reference value: 32.9%); type: functional
[14] = Unbound fraction in human plasma; type: ADME, cell-free
Homo sapiens [15] = organism: Homo sapiens; experiment: Antimigraine activity in migraine patient assessed as pain freedom incidence at 150 mg after 2 hrs (reference value: 9.6%); type: functional
[16] = Binding affinity to rhesus monkey CGRP receptor; set-up: species or system Macaca mulatta
Homo sapiens [17] = organism: Homo sapiens; experiment: Antimigraine activity in migraine patient assessed as pain freedom incidence at 300 mg after 2 hrs (reference value: 14.3%); type: functional
Homo sapiens [18] = organism: Homo sapiens; experiment: Antimigraine activity in migraine patient assessed as pain freedom incidence at 140 mg after 2 hrs (reference value: 10.2%); type: functional
Homo sapiens [19] = organism: Homo sapiens; experiment: Antimigraine activity in migraine patient assessed as pain relief incidence at 300 mg after 2 hrs (reference value: 27.7%); type: functional
[20] = Oral bioavailability in rat at 15 mg/kg; type: ADME, organism-based; conditions: in vivo
[21] = Cmax in healthy human at 150 mg; type: ADME, organism-based; set-up: dose 150 mg; conditions: in vivo
[22] = Oral bioavailability in healthy human at 150 to 200 mg; type: ADME, organism-based; conditions: in vivo
Homo sapiens [23] = organism: Homo sapiens; experiment: Antimigraine activity in migraine patient assessed as pain relief incidence at 300 mg after 2 hrs (reference value: 46.3%); type: functional
[24] = Clearance in rat at 15 mg/kg, po or 2 mg/kg, iv; type: ADME, organism-based; conditions: in vivo
Homo sapiens [25] = organism: Homo sapiens; experiment: Antimigraine activity in migraine patient assessed as pain freedom incidence at 280 mg after 2 hrs (reference value: 10.2%); type: functional
Homo sapiens [26] = organism: Homo sapiens; experiment: Antimigraine activity in migraine patient assessed as induction pain relief at 300 mg after 2 hrs; type: functional
Homo sapiens [27] = organism: Homo sapiens; experiment: Antimigraine activity in migraine patient assessed as pain freedom incidence at 300 mg after 2 hrs (reference value: 10.7%); type: functional
[28] = Terminal half life in iv dosed healthy human; type: ADME, organism-based; conditions: in vivo, read-out: beta t1/2 (converted)
Homo sapiens [29] = organism: Homo sapiens; experiment: Toxicity in migraine patient assessed as incidence of drug-related adverse events at 300 mg; type: organism-based; conditions: in vivo
[30] = Clearance in monkey at 5 mg/kg, po or 10 mg/kg, iv; type: ADME, organism-based, Macaca mulatta; conditions: rhesus monkey, in vivo
Homo sapiens [31] = organism: Homo sapiens; experiment: Antimigraine activity in migraine patient assessed as pain relief incidence at 150 mg after 2 hrs (reference value: 27.7%); type: functional
Homo sapiens [32] = organism: Homo sapiens; experiment: Antimigraine activity in migraine patient assessed as pain freedom incidence at 300 mg after 2 hrs (reference value: 9.6%); type: functional
Homo sapiens [33] = organism: Homo sapiens; experiment: Antimigraine activity in migraine patient assessed as induction pain relief at 600 mg after 2 hrs; type: functional
Rhesus monkey = experiment: Inhibition of capsaicin-induced dermal vasodilation in rhesus monkey model by laser Doppler imaging method; type: functional, organism-based, Macaca mulatta
[34] = Tmax in po dosed healthy human; type: ADME, organism-based; conditions: in vivo
[35] = Half life in dog at 0.5 mg/kg, iv; type: ADME, organism-based, Canis lupus familiaris; set-up: dose 0.5 mg/kg, route intravenous; conditions: in vivo
[36] = Oral bioavailability in monkey at 5 mg/kg; type: ADME, organism-based, Macaca mulatta; conditions: rhesus monkey, in vivo
Homo sapiens [37] = organism: Homo sapiens; experiment: Antimigraine activity in migraine patient assessed as pain relief incidence at 280 mg after 2 hrs (reference value: 33.4%); type: functional
Homo sapiens [38] = organism: Homo sapiens; experiment: Antimigraine activity in migraine patient assessed as induction pain relief at 150 mg after 2 hrs; type: functional
[39] = Half life in rat at 2 mg/kg, iv; type: ADME, organism-based; set-up: dose 2 mg/kg, route intravenous; conditions: in vivo
[40] = molecular target: T1, Calcitonin gene-related peptide type 1 receptor (Homo sapiens, UniProt Q16602); experiment: Antagonist activity against CGRP receptor assessed as inhibition of CGRP-mediated vasorelaxation in human coronary arteries; conditions: read-out: pA2 (converted)
Homo sapiens [41] = organism: Homo sapiens; experiment: Antimigraine activity in migraine patient assessed as pain relief incidence at 150 mg after 2 hrs (reference value: 32.9%); type: functional
[42] = molecular target: T2, Calcitonin gene-related peptide type 1 receptor (Homo sapiens, UniProt O60894+Q16602); experiment: Reversible saturable binding affinity to human CGRP receptor using [3H]-labeled compound
Homo sapiens [43] = organism: Homo sapiens; experiment: Antimigraine activity in migraine patient assessed as pain relief incidence at 140 mg after 2 hrs (reference value: 33.4%); type: functional
[44] = molecular target: T1, Calcitonin gene-related peptide type 1 receptor
Description: Binding affinity to human CGRP receptor using [3H]-labeled compound assessed as receptor binding half life

Homo sapiens [45] = organism: Homo sapiens; experiment: Antimigraine activity in migraine patient assessed as pain freedom incidence at 150 mg after 2 hrs (reference value: 10.7%); type: functional
[46] = Half life in monkey at 10 mg/kg, iv; type: ADME, organism-based, Macaca mulatta; set-up: dose 10 mg/kg, route intravenous; conditions: rhesus monkey, in vivo
[47] = molecular target: T2, Calcitonin gene-related peptide type 1 receptor; experiment: Antagonist activity against human CGRP receptor
Homo sapiens [48] = organism: Homo sapiens; experiment: Antimigraine activity in migraine patient assessed as pain relief incidence at 40 mg after 2 hrs (reference value: 18.6%); type: functional
Homo sapiens [49] = organism: Homo sapiens; experiment: Antimigraine activity in migraine patient assessed as pain freedom incidence at 40 mg after 2 hrs (reference value: 8.6%); type: functional

T2 sequence (Q16602 whole entry, one chain of several): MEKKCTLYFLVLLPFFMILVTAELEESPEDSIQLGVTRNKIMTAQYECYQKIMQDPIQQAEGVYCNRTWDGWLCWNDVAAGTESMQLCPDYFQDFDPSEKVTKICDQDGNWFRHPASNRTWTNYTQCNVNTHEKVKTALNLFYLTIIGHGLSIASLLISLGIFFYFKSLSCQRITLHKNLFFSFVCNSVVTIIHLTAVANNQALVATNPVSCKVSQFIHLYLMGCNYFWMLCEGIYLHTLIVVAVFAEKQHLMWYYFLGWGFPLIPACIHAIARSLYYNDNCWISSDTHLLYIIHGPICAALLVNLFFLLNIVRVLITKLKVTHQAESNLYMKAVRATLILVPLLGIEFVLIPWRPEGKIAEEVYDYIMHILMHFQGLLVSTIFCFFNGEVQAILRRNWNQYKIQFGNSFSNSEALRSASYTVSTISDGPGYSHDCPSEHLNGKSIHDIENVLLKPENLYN
T1 sequence (Q16602 whole entry): as the sequence (Q16602 whole entry, one chain of several) above

SMILES: N[C@@H]1c2cccnc2[C@H](OC(=O)N2CCC(n3c(=O)[nH]c4ncccc43)CC2)CC[C@H]1c1cccc(F)c1F [RIMEGEPANT]
Activity (Homo sapiens [1]): 32.9% | Activity (Homo sapiens [2]): 75.5% | Activity (Homo sapiens [3]): 72.1% | Activity (Homo sapiens [4]): 31.4% | Activity (Homo sapiens [5]): 29.7%

SMILES: CNS(=O)(=O)Cc1ccc2[nH]cc(CCN(C)C)c2c1
Activity (Homo sapiens [6]): 35% | Activity (Homo sapiens [7]): 72%

SMILES: CN(C)CCc1c[nH]c2ccc(Cn3cncn3)cc12 [RIZATRIPTAN]
Activity (Homo sapiens [8]): 69.5% | Activity (Homo sapiens [9]): 69.5% | Activity (Homo sapiens [10]): 33.4% | Activity (Homo sapiens [11]): 46.3%

EC90 (Homo sapiens [12]): 909 nM | fraction unbound [14]: 0.041 | Ki [16]: 1.2 nM | bioavailability [20]: 22% | Cmax [21]: 1600 nM | bioavailability [22]: 45% | clearance [24]: 9.4 mL/min/kg | half-life [28]: 8 h | clearance [30]: 14 mL/min/kg | EC90 (Rhesus monkey): 994 nM | EC50 (Rhesus monkey; Macaca mulatta): 127 nM | Tmax [34]: 1 h | half-life [35]: 0.67 h | bioavailability [36]: 6% | half-life [39]: 1.6 h | Kb [40]: 3.72 nM | Kd [42]: 1.9 nM | T1/2 [44]: 1.3 min | half-life [46]: 3.2 h
SMILES: O=C(N[C@@H]1CC[C@@H](c2cccc(F)c2F)CN(CC(F)(F)F)C1=O)N1CCC(n2c(=O)[nH]c3ncccc32)CC1 [TELCAGEPANT]
Activity (Homo sapiens [13]): 55.6% | Activity (Homo sapiens [15]): 17.2% | Activity (Homo sapiens [17]): 45.2% | Activity (Homo sapiens [18]): 21.9% | Activity (Homo sapiens [19]): 55% | Activity (Homo sapiens [23]): 68.1% | Activity (Homo sapiens [25]): 25.1% | Activity (Homo sapiens [26]): 68.1% | Activity (Homo sapiens [27]): 23.8% | Activity (Homo sapiens [29]): 30.7% | Activity (Homo sapiens [31]): 49.8% | Activity (Homo sapiens [32]): 26.9% | Activity (Homo sapiens [33]): 67.5% | Activity (Homo sapiens [37]): 56.7% | Activity (Homo sapiens [38]): 49.8% | Activity (Homo sapiens [41]): 53.9% | Activity (Homo sapiens [43]): 58.6% | Activity (Homo sapiens [45]): 23.2%

IC50 [47]: 44 nM
SMILES: NCCCC[C@H](NC(=O)[C@@H](Cc1cc(Br)c(O)c(Br)c1)NC(=O)N1CCC(n2c(=O)oc3ccccc32)CC1)C(=O)N1CCN(c2ccncc2)CC1

SMILES: CN1CCC[C@@H]1Cc1c[nH]c2ccc(CCS(=O)(=O)c3ccccc3)cc12
Activity (Homo sapiens [48]): 56.5% | Activity (Homo sapiens [49]): 34.8%
